Patent US20250011368A1, “DLL3 TARGETING PEPTIDES AND CONSTRUCTS THEREOF” (MARIANA ONCOLOGY INC., priority 2023, published 2025)
Like-named read-outs stand apart in the source and are kept apart here. Numbered stars: 1 amine (or outer) side, 2 acyl side, 3 side chain; on linkers, the order of the positions; unused ones are H or OH. Bridge positions count the residues as written; N and C are the ends. Square brackets hold non-standard residues; d marks the D form. Side chains are listed from the residue outwards. Peptide text beside a SMILES is read from it. I, II: the chains in the order shown. * marks the point of attachment. X10 = C[N+](C)(CCNC(=O)CCOCCOCCOCCOCCOCCOCCOCCOCCNC(=O)CN1CCN(CC(=O)O)CCN(CC(=O)O)CCN(CC(=O)O)CC1)CC(=O)*; DOTA = O=C(O)CN1CCN(CC(=O)O)CCN(CC(=O)*)CCN(CC(=O)O)CC1; Trp(7-Me) = Cc1cccc2c(C[C@H](N)C(=O)O)c[nH]c12; PEG8 = NCCOCCOCCOCCOCCOCCOCCOCCOCCC(=O)O; γGlu = O=C(O)[C@H](CCC(=O)[*:2])N[*:1]; 2Nal = N[C@@H](Cc1ccc2ccccc2c1)C(=O)O; X8 = CC1(C)CN([*:1])[C@@H]1C(=O)[*:2]; X12 = C[N+](C)(CCN[*:1])CC(=O)[*:2]; Trx = NC[C@H]1CC[C@H](C(=O)O)CC1; 3Pal = N[C@@H](Cc1cccnc1)C(=O)O; Lauroyl = CCCCCCCCCCCC(=O)*; 4Amb = NCc1ccc(C(=O)O)cc1; Ahx = NCCCCCC(=O)O; Sar = CNCC(=O)O

Molecular target: T1, human DLL3 (Homo sapiens, UniProt Q9NYJ7)
T1 sequence (Q9NYJ7 27-618): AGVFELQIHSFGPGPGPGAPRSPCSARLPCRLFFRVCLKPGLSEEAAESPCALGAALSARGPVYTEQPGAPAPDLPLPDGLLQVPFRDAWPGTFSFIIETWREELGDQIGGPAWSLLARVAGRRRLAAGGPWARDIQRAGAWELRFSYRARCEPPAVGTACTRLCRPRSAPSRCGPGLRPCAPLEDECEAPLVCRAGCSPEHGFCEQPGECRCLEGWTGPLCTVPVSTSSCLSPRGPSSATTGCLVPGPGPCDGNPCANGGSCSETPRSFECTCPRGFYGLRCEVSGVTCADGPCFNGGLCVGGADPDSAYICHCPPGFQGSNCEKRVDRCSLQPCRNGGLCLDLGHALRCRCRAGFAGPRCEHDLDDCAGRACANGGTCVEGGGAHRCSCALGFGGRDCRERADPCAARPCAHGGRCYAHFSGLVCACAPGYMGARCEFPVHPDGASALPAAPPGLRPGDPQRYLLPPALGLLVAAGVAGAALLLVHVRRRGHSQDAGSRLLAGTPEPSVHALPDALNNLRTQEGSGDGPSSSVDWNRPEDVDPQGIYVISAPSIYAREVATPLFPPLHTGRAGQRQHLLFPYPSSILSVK
Experiment: Affinity determination by Surface Plasmon Resonance (SPR)
Format: binding
Procedure, shortened: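 Biotinylated human DLL3 was captured on a streptavidin chip with a reference surface. Compounds at several concentrations were injected at 100 μL/minute in phosphate buffer (137 mM NaCl, 2.7 mM KCl, 0.05% P20, 2% DMSO). Affinity and kinetics came from 1:1 model fits of the sensorgrams.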

[1] = 25° C., biotinylated human DLL3 immobilized on streptavidin sensor chip, 1:1 binding model, read-out: SPR KD

Compound | Kd [1] [nM] | Kd [nM]
CC[C@H](C)[C@H](NC(=O)[C@@H](NC(=O)[C@H](Cc1c[nH]c2ccccc12)NC(C)=O)[C@@H](C)O)C(=O)N[C@H]1CSSC[C@@H](C(=O)N[C@@H](Cc2c[nH]c3ccccc23)C(=O)N2CC(C)(C)[C@H]2C(=O)N[C@H](CCCCNC(=O)CN2CCN(CC(=O)O)CCN(CC(=O)O)CCN(CC(=O)O)CC2)C(N)=O)NC(=O)[C@H](CC(=O)O)NC(=O)[C@H](Cc2c[nH]cn2)NC(=O)[C@H](Cc2ccc3ccccc3c2)NC(=O)[C@H](CC(N)=O)NC(=O)[C@H](CC(N)=O)NC1=O [compound 362, Ac-W-T-I-C(3)-N-N-(2Nal)-H-D-C(3)-W-3Me2-Aze-[D-Lys(DOTA)]-NH2] (Ac-WTICNN[2Nal]HDCW[X8][dK](DOTA)-NH2; disulfide 4-10) | < 1 | –
CC[C@H](C)[C@H](NC(=O)[C@@H](NC(=O)[C@H](Cc1c[nH]c2ccccc12)NC(C)=O)[C@@H](C)O)C(=O)N[C@H]1CSSC[C@@H](C(=O)N[C@@H](Cc2c[nH]c3ccccc23)C(=O)N2CCC[C@H]2C(=O)N[C@H](CCCCNC(=O)C[N+](C)(C)CCNC(=O)CCOCCOCCOCCOCCOCCOCCOCCOCCNC(=O)CN2CCN(CC(=O)O)CCN(CC(=O)O)CCN(CC(=O)O)CC2)C(N)=O)NC(=O)[C@H](CC(=O)O)NC(=O)[C@H](Cc2c[nH]cn2)NC(=O)[C@H](Cc2ccc3ccccc3c2)NC(=O)[C@H](CC(N)=O)NC(=O)[C@H](CC(N)=O)NC1=O [compound 363, Ac-W-T-I-C(3)-N-N-(2Nal)-H-D-C(3)-W-P-[D-Lys(SP6-PEG8-DOTA)]-NH2] (Ac-WTICNN[2Nal]HDCWP[dK](X10)-NH2; disulfide 4-10) | – | < 1
CC[C@H](C)[C@H](NC(=O)[C@@H](NC(=O)[C@H](Cc1c[nH]c2ccccc12)NC(C)=O)[C@@H](C)O)C(=O)N[C@H]1CSSC[C@@H](C(=O)N[C@@H](Cc2c[nH]c3ccccc23)C(=O)N2CCC[C@H]2C(=O)NCC[N+](C)(C)CC(=O)NCCOCCOCCOCCOCCOCCOCCOCCOCCC(=O)N[C@H](CCCCNC(=O)CN2CCN(CC(=O)O)CCN(CC(=O)O)CCN(CC(=O)O)CC2)C(N)=O)NC(=O)[C@H](CC(=O)O)NC(=O)[C@H](Cc2c[nH]cn2)NC(=O)[C@H](Cc2ccc3ccccc3c2)NC(=O)[C@H](CC(N)=O)NC(=O)[C@H](CC(N)=O)NC1=O [compound 364, Ac-W-T-I-C(3)-N-N-(2Nal)-H-D-C(3)-W-P-SP6-PEG8-[D-Lys(DOTA)]-NH2] (Ac-WTICNN[2Nal]HDCWP[X12][PEG8][dK](DOTA)-NH2; disulfide 4-10) | < 1 | –
CC[C@H](C)[C@H](NC(=O)[C@@H](NC(=O)[C@H](Cc1c[nH]c2ccccc12)NC(C)=O)[C@@H](C)O)C(=O)N[C@H]1CSSC[C@@H](C(=O)N[C@@H](Cc2c[nH]c3ccccc23)C(=O)N2CCC[C@H]2C(=O)N[C@H](CCCCNC(=O)CNC(=O)CNC(=O)[C@H](CO)NC(=O)CNC(=O)CNC(=O)[C@H](CO)NC(=O)CN2CCN(CC(=O)O)CCN(CC(=O)O)CCN(CC(=O)O)CC2)C(N)=O)NC(=O)[C@H](CC(=O)O)NC(=O)[C@H](Cc2c[nH]cn2)NC(=O)[C@H](Cc2ccc3ccccc3c2)NC(=O)[C@H](CC(N)=O)NC(=O)[C@H](CC(N)=O)NC1=O [compound 365, Ac-W-T-I-C(3)-N-N-(2Nal)-H-D-C(3)-W-P-[D-Lys(G-G-S-G-G-S-DOTA)]-NH2] (I: Ac-WTICNN[2Nal]HDCWP[dK]-NH2 / II: {DOTA}-SGGSGG; disulfide I:4-I:10; amide I:13-II:C) | < 1 | –
CC[C@H](C)[C@H](NC(=O)[C@@H](NC(=O)[C@H](Cc1c[nH]c2ccccc12)NC(C)=O)[C@@H](C)O)C(=O)N[C@H]1CSSC[C@@H](C(=O)N[C@@H](Cc2c[nH]c3ccccc23)C(=O)N2CCC[C@H]2C(=O)N[C@H](CCCCNC(=O)CN2CCN(CC(=O)O)CCN(CC(=O)O)CCN(CC(=O)O)CC2)C(N)=O)NC(=O)[C@H](CC(=O)O)NC(=O)[C@H](Cc2cccnc2)NC(=O)[C@H](Cc2ccc3ccccc3c2)NC(=O)[C@H](CC(N)=O)NC(=O)[C@H](CC(N)=O)NC1=O [compound 366, Ac-W-T-I-C(3)-N-N-(2Nal)-(3Pya)-D-C(3)-W-P-[D-Lys(DOTA)]-NH2] (Ac-WTICNN[2Nal][3Pal]DCWP[dK](DOTA)-NH2; disulfide 4-10) | < 1 | –
CCCCCCCCCCCC(=O)NCCCC[C@@H]1NC(=O)[C@H](Cc2ccc3ccccc3c2)NC(=O)[C@H](CC(N)=O)NC(=O)[C@H](CC(N)=O)NC(=O)[C@@H](NC(=O)[C@@H](NC(=O)[C@@H](NC(=O)[C@H](Cc2c[nH]c3ccccc23)NC(C)=O)[C@@H](C)O)[C@@H](C)CC)CSSC[C@@H](C(=O)N[C@@H](Cc2c[nH]c3ccccc23)C(=O)N2CCC[C@H]2C(=O)N[C@H](CCCCNC(=O)CC[C@H](NC(=O)CC[C@H](NC(=O)CC[C@H](NC(=O)CN2CCN(CC(=O)O)CCN(CC(=O)O)CCN(CC(=O)O)CC2)C(=O)O)C(=O)O)C(=O)O)C(N)=O)NC(=O)[C@H](CC(=O)O)NC1=O [compound 368, Ac-W-T-I-C(3)-N-N-(2Nal)-K(C12)-D-C(3)-W-P-[D-Lys(gE-gE-gE-DOTA)]-NH2] (Ac-WTICNN[2Nal]K(Lauroyl)DCWP[dK]([γGlu-γGlu-γGlu-DOTA])-NH2; disulfide 4-10) | 1 to 10 | –
CCCCCCCCCCCC(=O)NCCCC[C@@H]1NC(=O)[C@H](Cc2ccc3ccccc3c2)NC(=O)[C@H](CC(N)=O)NC(=O)[C@H](CC(N)=O)NC(=O)[C@@H](NC(=O)[C@@H](NC(=O)[C@@H](NC(=O)[C@H](Cc2c[nH]c3c(C)cccc23)NC(C)=O)[C@@H](C)O)[C@@H](C)CC)CSSC[C@@H](C(=O)N[C@@H](Cc2c[nH]c3ccccc23)C(=O)N2CCC[C@H]2C(=O)N[C@H](CCCCNC(=O)CN2CCN(CC(=O)O)CCN(CC(=O)O)CCN(CC(=O)O)CC2)C(N)=O)NC(=O)[C@H](CC(=O)O)NC1=O [compound 369, Ac-(7Me-W)-T-I-C(3)-N-N-(2Nal)-H-D-C(3)-W-P-[D-Lys(DOTA)]-NH2] (Ac-[Trp(7-Me)]TICNN[2Nal]K(Lauroyl)DCWP[dK](DOTA)-NH2; disulfide 4-10) | 1 to 10 | –
CC[C@H](C)[C@H](NC(=O)[C@@H](NC(=O)[C@H](Cc1c[nH]c2ccccc12)NC(C)=O)[C@@H](C)O)C(=O)N[C@H]1CSSC[C@@H](C(=O)N[C@@H](Cc2c[nH]c3ccccc23)C(=O)N2CCC[C@H]2C(=O)N(C)CC(=O)N(C)CC(=O)N(C)CC(=O)N(C)CC(=O)N(C)CC(=O)N[C@H](CCCCNC(=O)CN2CCN(CC(=O)O)CCN(CC(=O)O)CCN(CC(=O)O)CC2)C(N)=O)NC(=O)[C@H](CC(=O)O)NC(=O)[C@H](Cc2cnc[nH]2)NC(=O)[C@H](Cc2ccc3ccccc3c2)NC(=O)[C@H](CC(N)=O)NC(=O)[C@H](CC(N)=O)NC1=O [compound 371, Ac-W-T-I-C(3)-N-N-(2Nal)-H-D-C(3)-W-P-(Sar)5-[D-Lys(DOTA)]-NH2] (Ac-WTICNN[2Nal]HDCWP[Sar][Sar][Sar][Sar][Sar][dK](DOTA)-NH2; disulfide 4-10) | < 1 | –
CC[C@H](C)[C@H](NC(=O)[C@@H](NC(=O)[C@H](Cc1c[nH]c2ccccc12)NC(C)=O)[C@@H](C)O)C(=O)N[C@H]1CSSC[C@@H](C(=O)N[C@@H](Cc2c[nH]c3ccccc23)C(=O)N2CCC[C@H]2C(=O)NCCCCCC(=O)NCCCCCC(=O)N[C@H](CCCCNC(=O)CN2CCN(CC(=O)O)CCN(CC(=O)O)CCN(CC(=O)O)CC2)C(N)=O)NC(=O)[C@H](CC(=O)O)NC(=O)[C@H](Cc2cnc[nH]2)NC(=O)[C@H](Cc2ccc3ccccc3c2)NC(=O)[C@H](CC(N)=O)NC(=O)[C@H](CC(N)=O)NC1=O [compound 372, Ac-W-T-I-C(3)-N-N-(2Nal)-H-D-C(3)-W-P-(Ahx)2-[D-Lys(DOTA)]-NH2] (Ac-WTICNN[2Nal]HDCWP[Ahx][Ahx][dK](DOTA)-NH2; disulfide 4-10) | < 1 | –
CC[C@H](C)[C@H](NC(=O)[C@@H](NC(=O)[C@H](Cc1c[nH]c2ccccc12)NC(C)=O)[C@@H](C)O)C(=O)N[C@H]1CSSC[C@@H](C(=O)N[C@@H](Cc2c[nH]c3ccccc23)C(=O)N2CCC[C@H]2C(=O)NC[C@H]2CC[C@H](C(=O)NC[C@H]3CC[C@H](C(=O)N[C@H](CCCCNC(=O)CN4CCN(CC(=O)O)CCN(CC(=O)O)CCN(CC(=O)O)CC4)C(N)=O)CC3)CC2)NC(=O)[C@H](CC(=O)O)NC(=O)[C@H](Cc2cnc[nH]2)NC(=O)[C@H](Cc2ccc3ccccc3c2)NC(=O)[C@H](CC(N)=O)NC(=O)[C@H](CC(N)=O)NC1=O [compound 373, Ac-W-T-I-C(3)-N-N-(2Nal)-H-D-C(3)-W-P-(Cyx)2-[D-Lys(DOTA)]-NH2] (Ac-WTICNN[2Nal]HDCWP[Trx][Trx][dK](DOTA)-NH2; disulfide 4-10) | < 1 | –
CC[C@H](C)[C@H](NC(=O)[C@@H](NC(=O)[C@H](Cc1c[nH]c2ccccc12)NC(C)=O)[C@@H](C)O)C(=O)N[C@H]1CSSC[C@@H](C(=O)N[C@@H](Cc2c[nH]c3ccccc23)C(=O)N2CCC[C@H]2C(=O)NCc2ccc(C(=O)N[C@H](CCCCNC(=O)CN3CCN(CC(=O)O)CCN(CC(=O)O)CCN(CC(=O)O)CC3)C(N)=O)cc2)NC(=O)[C@H](CC(=O)O)NC(=O)[C@H](Cc2c[nH]cn2)NC(=O)[C@H](Cc2ccc3ccccc3c2)NC(=O)[C@H](CC(N)=O)NC(=O)[C@H](CC(N)=O)NC1=O [compound 374, Ac-W-T-I-C(3)-N-N-(2Nal)-H-D-C(3)-W-P-(AMBX)-[D-Lys(DOTA)]-NH2] (Ac-WTICNN[2Nal]HDCWP[4Amb][dK](DOTA)-NH2; disulfide 4-10) | < 1 | –
